What is called inhibition is how much of the control response was suppressed. Lower therefore signals a weak effect. Usually EC50 stands for the concentration at which the effect is half-maximal.

Data on 20 compounds can be found in patent US7084155B2, “Chemokine receptor binding heterocyclic compounds” (AnorMED, priority 2000, dated 2006).

For experiment [1], the system named is SDF-1 induced Ca flux in SUP-T1 cells. The experiment is described as follows: Inhibition of chemokine (SDF-1) induced Ca flux measured on a FLIPR. In kind it is cell-based. As to conditions: Homo sapiens. The protocol: Inhibition of Chemokine Induced Ca Flux Measured on a FLIPR (Molecular Devices) Loading dye: Fluo-3, AM (Molecular Probes F-1241) is dissolved in anhydrous DMSO and stored frozen in aliquots. To increase the solubility of the dye in the loading medium, 10% (w/v) pluronic acid (Molecular Probes F-127) is added to the Fluo-3 stock solution immediately before use. HBSS+20 mM Hepes buffer+0.2% BSA, pH 7.4. HBSS 10× [(w/o phenol red and sodium bicarbonate (Gibco 14 065–049)]; Hepes buffer 1M (Gibco 15 630–056), BSA (Sigma A3675). The flux buffer is vacuum-filtered and stored refrigerated for a maximum of 5 days. Before use in the experiment, the buffer is warmed at 37° C. in a waterbath. The test compounds were diluted in flux buffer to the desired concentration and added to 4 wells of a black microplate (4 parallel measurements per compound). The following control wells were used: 100% response control (no inhibition), flux buffer was added; 100% inhibition control: chemokine was added at 5-times the concentration required to induce a Ca flux. The chemokines are diluted in flux buffer to concentrations that are 4-fold higher than the desired concentrations required for stimulation of the cells (i.e. 2.5 nM for SDF-1[…] and 0.6 nM for RANTES). The chemokines were added to untreated 96-well Sero well compound plates (International Medical, Sterilin code 611F96). In the negative control well's (baseline monitoring), flux buffer is added instead of chemokine. As a positive control to check for dye loading efficiency, 20 μM digitonin (final concentration) was also included. The agonist plate was incubated in the FLIPR (37° C.) for 15–30 min. Cell Loading Protocol for Measuring Inhibition of SDF-1[…] Induced Ca Flux in SUP-T1 Cells. SUP-T1 cells were centrifuged at room temperature (RT) and re-suspended in loading medium (RPMI-1640 containing 2% FBS and 4 μM Fluo-3, AM). The cells were incubate at room temperature for 45 min. then washed twice in flux buffer then incubated in flux buffer at room temperature for 10 min. The cells were centrifuged and re-suspended in flux buffer at a density of 3×10^6 cells per mL. A 100 uL aliquot of the cell suspension (3×10^5 cells) was added to each well of a black microplate (Costar 3603), which already contains 50 uL of a solution of the test compound (at concentrations that are 3-fold higher than the desired final compound concentrations). The microplate is then gently centrifuged at room temperature. Homogeneous spreading of the cells on the bottom of the microplate wells was then confirmed with a microscope and the microplate was incubated in the FLIPR (37° C.) for 10 min. prior to testing. Fluorescence Measurements as a Function of Time on the FLIPR The FLIPR settings (camera exposure time and laser power) are adjusted to obtain initial fluorescence values between 8,000 and 10,000 units. After monitoring a 20 second-baseline, the agonist (chemokine) (50 uL) is added by automatic pipettor with black pipette tips. Fluorescence is measured simultaneously in all wells of the microplate every 2 seconds (first 2 min) and thereafter every 6 seconds (additional 2 min). The average ca-flux measured in each set of 4 identical wells (one test compound) was calculated by the FLIPR software.

Another experiment deals with HIV-1 NL4.3 or IIIB. The experiment is described as follows: Inhibition of HIV-1 (NL4.3 or IIIB, CXCR4 using) replication in MT-4 cells, MTT viability. In kind it is cell-based. As to conditions: Human immunodeficiency virus 1, IIIB, MT4, concentration protecting 50% of virus-infected cells against viral cytopathicity. The protocol:
Assay for Inhibition of HIV-1 (NL4.3) Replication in MT-4 Cells Inhibition of HIV-1 NL4.3 (or IIIB, CXCR4 using) replication assays were performed as previously described (Bridger et al. J. Med. Chem. 1999, 42, 3971-3981; De […] et al. Proc. Natl. Acad. Sci, 1992, 89, 5286-5290; De […] et al. Antimicrob. Agents Chemother. 1994, 38, 668-674; Bridger et al. J. Med. Chem. 1995, 38, 366-378; Schols et al. J. Exp. Med., 1997, 186, 1383-1388). Anti-HIV activity and cytotoxicity measurements were carried out in parallel. They were based on the viability of MT-4 cells that had been infected with HIV in the presence of various concentrations of the test compounds. After the MT-4 cells were allowed to proliferate for 5 days, the number of viable cells was quantified by a tetrazolium-based colorimetric 3-(4,5-dimethylthiazol-2-yl)-2,5-diphenyltetrazolium bromide (MTT) procedure in 96-well microtrays. In all of these assays, viral input (viral multiplicity of infection, MOI) was 0.01, or 100 times the 50% cell culture infective dose (CCID50). The EC50 was defined as the concentration required to protect 50% of the virus-infected cells against viral cytopathicity.

For `c1ccc(CNCc2ccc(CN(Cc3nc4ccccc4[nH]3)C3CCOc4cccnc43)cc2)nc1` (stereo not drawn) [Example 40, N-(2-pyridinylmethyl)-N′-(1-H-benzimidazol-2-ylmethyl)-N′-(3,4-dihydro-2H-pyrano[3,2-b]pyridinyl)-1,4-benzenedimethanamine], the inhibition at 20 µg/mL in experiment [1] is more than 20%. The same compound came in with an EC50 in the experiment with HIV-1 NL4.3 or IIIB of less than 20 µg/mL.
The like results for `Oc1cccc(CNCc2ccc(CN(Cc3nc4ccccc4[nH]3)C3CCCc4cccnc43)cc2)n1` (stereo not drawn) [Example 58, N-(6-hydroxy-2-pyridinylmethyl)-N′-(1H-benzimidazol-2-ylmethyl)-N′-(5,6,7,8-tetrahydro-8-quinolinyl)-1,4-benzenedimethanamine] were, in that order, more than 20% and less than 20 µg/mL.
Taken in the same sequence, the figures for `COc1ccc(-c2cnc(CN(Cc3ccc(CNCc4ccccn4)cc3)C3CCCc4cccnc43)[nH]2)cc1` (stereo not drawn) [Example 26, N-(2-pyridinylmethyl)-N′-[4-(4-methoxyphenyl)-1H-imidazol-2-ylmethyl]-N′-(5,6,7,8-tetrahydro-8-quinolinyl)-1,4-benzenedimethanamine] were more than 20% and less than 20 µg/mL.
Regarding `[O-][n+]1ccccc1CNCc1ccc(CN(Cc2nc3ccccc3[nH]2)C2CCCc3cccnc32)cc1` (stereo not drawn) [Example 70, N-(1-oxo-2-pyridinylmethyl)-N′-(1H-benzimidazol-2-ylmethyl)-N′-(5,6,7,8-tetrahydro-8-quinolinyl)-1,4-benzenedimethanamine], the EC50 in the experiment with HIV-1 NL4.3 or IIIB was less than 20 µg/mL.
In experiment [1], `c1ccc(CNCc2ccc(CN(CCCn3cnc4ccccc43)C3CCCc4cccnc43)cc2)nc1` (stereo not drawn) [Example 38, N-(2-pyridinylmethyl)-N′-[3-(benzimidazol-1-yl)prop-1-yl]-N′-(5,6,7,8-tetrahydro-8-quinolinyl)-1,4-benzenedimethanamine] displayed an inhibition at 20 µg/mL of more than 20%. In the experiment on HIV-1 NL4.3 or IIIB, this compound gave an EC50 of less than 20 µg/mL.
`Cc1cccnc1CNCc1ccc(CN(Cc2nc3ccccc3[nH]2)C2CCCc3cccnc32)cc1` (stereo not drawn) [Example 56, N-(3-methyl-2-pyridinylmethyl)-N′-(1H-benzimidazol-2-ylmethyl)-N′-(5,6,7,8-tetrahydro-8-quinolinyl)-1,4-benzenedimethanamine] displayed an inhibition at 20 µg/mL in experiment [1] of more than 20%. In the experiment on HIV-1 NL4.3 or IIIB, this compound displayed an EC50 of less than 20 µg/mL.
Taken in the same sequence, the figures for `Brc1cccc2nc(CN(Cc3ccc(CNCc4ccccn4)cc3)C3CCCc4cccnc43)[nH]c12` (stereo not drawn) [Example 22, N-(2-pyridinylmethyl)-N′-(4-bromobenzimidazol-2-ylmethyl)-N′-(5,6,7,8-tetrahydro-8-quinolinyl)-1,4-benzenedimethanamine] were more than 20% and less than 20 µg/mL.
Take `O=C(c1ccccc1)c1ccc2[nH]c(CN(Cc3ccc(CNCc4ccccn4)cc3)C3CCCc4cccnc43)nc2c1` (stereo not drawn) [Example 9, N-(2-pyridinylmethyl)-N′-(5-benzoyl-1H-benzimidazol-2-ylmethyl)-N′-(5,6,7,8-tetrahydro-8-quinolinyl)-1,4-benzenedimethanamine]: the inhibition at 20 µg/mL in experiment [1] was more than 20%. In the experiment with HIV-1 NL4.3 or IIIB, the EC50 is less than 20 µg/mL.
The like results for `Fc1cccc2nc(CN(Cc3ccc(CNCc4ccccn4)cc3)C3CCCc4cccnc43)[nH]c12` (stereo not drawn) [Example 21, N-(2-pyridinylmethyl)-N′-(4-fluorobenzimidazol-2-ylmethyl)-N′-(5,6,7,8-tetrahydro-8-quinolinyl)-1,4-benzenedimethanamine] were, in that order, more than 20% and less than 20 µg/mL.
The like results for `COC(=O)c1ccc2[nH]c(CN(Cc3ccc(CNCc4ccccn4)cc3)C3CCCc4cccnc43)nc2c1` (stereo not drawn) [Example 6, N-(2-pyridinylmethyl)-N′-(5-carboxymethyl-1-H-benzimidazol-2-ylmethyl)-N′-(5,6,7,8-tetrahydro-8-quinolinyl)-1,4-benzenedimethanamine] were, in that order, more than 20% and less than 20 µg/mL.
`c1ccc(N[C@H]2CCCC[C@@H]2N(Cc2ccc(CNCc3ccccn3)cc2)Cc2nc3ccccc3[nH]2)cc1` [Example 131] showed an EC50 in the experiment with HIV-1 NL4.3 or IIIB of less than 20 µg/mL.
The compound `c1ccc(CNCc2ccc(CN(CCc3nc4ccccc4[nH]3)C3CCCc4cccnc43)cc2)nc1` (stereo not drawn) [Example 23] gave an inhibition at 20 µg/mL in experiment [1] of more than 20%. In the experiment with HIV-1 NL4.3 or IIIB, the EC50 is less than 20 µg/mL.
`c1ccc(CNCc2ccc(CN(Cc3nc4cccnc4[nH]3)C3CCCc4cccnc43)cc2)nc1` (stereo not drawn) [Example 10, N-(2-pyridinylmethyl)-N′-[(1H)-4-azabenzimidazol-2-ylmethyl]-N′-(5,6,7,8-tetrahydro-8-quinolinyl)-1,4-benzenedimethanamine] came in with an inhibition at 20 µg/mL in experiment [1] of more than 20%. The compound further showed an EC50 in the experiment on HIV-1 NL4.3 or IIIB of less than 20 µg/mL.
The like results for `Brc1cccc(CNCc2ccc(CN(Cc3nc4ccccc4[nH]3)C3CCCc4cccnc43)cc2)n1` (stereo not drawn) [Example 57, N-(6-bromo-2-pyridinylmethyl)-N′-(1H-benzimidazol-2-ylmethyl)-N′-(5,6,7,8-tetrahydro-8-quinolinyl)-1,4-benzenedimethanamine] were, in that order, more than 20% and less than 20 µg/mL.
Taken in the same sequence, the figures for `Fc1ccc(-c2c[nH]c(CN(Cc3ccc(CNCc4ccccn4)cc3)C3CCCc4cccnc43)n2)cc1` (stereo not drawn) [Example 36, N-(2-Pyridinylmethyl)-N′-[4-(4-fluorophenyl)-1H-imidazol-2-ylmethyl]-N′-(5,6,7,8-tetrahydro-8-quinolinyl)-1,4-benzenedimethanamine] were more than 20% and less than 20 µg/mL.
Taken in the same sequence, the figures for `CCCOc1cccnc1CNCc1ccc(CN(Cc2nc3ccccc3[nH]2)C2CCCc3cccnc32)cc1` (stereo not drawn) [Example 59, N-(3-propoxy-2-pyridinylmethyl)-N′-(1H-benzimidazol-2-ylmethyl)-N′-(5,6,7,8-tetrahydro-8-quinolinyl)-1,4-benzenedimethanamine] were more than 20% and less than 20 µg/mL.
`COc1ccnc2c1CCCC2N(Cc1ccc(CNCc2ccccn2)cc1)Cc1nc2ccccc2[nH]1` (stereo not drawn) [Example 44, N-(2-pyridinylmethyl)-N′-[1H-benzimidazol-2-ylmethyl]-N′-(4-methoxy-5,6,7,8-tetrahydro-8-quinolinyl)-1,4-benzenedimethanamine] returned an inhibition at 20 µg/mL in experiment [1] of more than 20%. In addition, in the experiment with HIV-1 NL4.3 or IIIB, the EC50 is less than 20 µg/mL.
Taken in the same sequence, the figures for `c1ccc(CNCc2ccc(CN(CCCc3nc4ccccc4[nH]3)C3CCCc4cccnc43)cc2)nc1` (stereo not drawn) [Example 24, N-(2-pyridinylmethyl)-N′-[3-(1H-benzimidazol-2-yl)prop-1-yl]-N′-(5,6,7,8-tetrahydro-8-quinolinyl)-1,4-benzenedimethanamine] were more than 20% and less than 20 µg/mL.
With `c1ccc(CNCc2ccc(CN(Cc3nc4ccccc4s3)C3CCCc4cccnc43)cc2)nc1` (stereo not drawn) [Example 16, N-(2-pyridinylmethyl)-N′-(benzothiazol-2-ylmethyl)-N′-(5,6,7,8-tetrahydro-8-quinolinyl)-1,4-benzenedimethanamine], the EC50 with HIV-1 NL4.3 or IIIB was less than 20 µg/mL.
In the case of `CCOc1cccnc1CNCc1ccc(CN(Cc2nc3ccccc3[nH]2)C2CCCc3cccnc32)cc1` (stereo not drawn) [Example 69, N-(3-ethoxy-2-pyridinylmethyl)-N′-(1H-benzimidazol-2-ylmethyl)-N′-(5,6,7,8-tetrahydro-8-quinolinyl)-1,4-benzenedimethanamine], in the experiment on HIV-1 NL4.3 or IIIB, the EC50 is less than 20 µg/mL.
